One experiment deals with mouse astroglias. The following applies: cited from earlier work.
Experiment [1] deals with Patients with Alzheimer type dementia. Kind of experiment: Double-blind controlled study, efficacy by Alzheimer's Disease Assessment Scale (ADAS). The class given is in vivo. The conditions noted are these: for Score Difference after 6 Months of Administration (mean ± SD): ADAS, n=100, severity increases as the value increases. The protocol:
A double-blind controlled study was conducted in patients with Alzheimer type dementia.
There was no bias in background factors or pre-administration values for efficacy evaluation index among the three groups. Efficacy was evaluated by the Alzheimer's Disease Assessment Scale (ADAS) [American Journal of Psychiatry, Vol. 141, pp. 1356-1364, (1984)], an index for rating the therapeutic effect on Alzheimer's disease recommended by the FDA and all over the world. The results were statistically analyzed to rate the efficacy.
The drugs administered to the patients in the experiment were the tablet preparations of Example 1 and Comparative Examples 1 and 2 above.

Experiment [2] has as its system patients with Alzheimer's disease. The following applies: 45 mg twice a day (daily dose 90 mg); cited from earlier work.

Molecules are shown by their SMILES.

Regarding `COC1=C(OC)C(=O)C(CCCCCCCCCCO)=C(C)C1=O` [idebenone, 6-(10-hydroxydecyl)-2,3-dimethoxy-5-methyl-1,4-benzoquinone], the “nerve growth factor (NGF) secretion” value with mouse astroglias is “induction and promotion of nerve growth factor (NGF) secretion”. Besides, in experiment [1] (90 mg 3 times a day, compared with 30 mg 3 times a day and placebo), the “symptoms of Alzheimer's disease” value was “improvement of statistical significance”. Also, the results for the “Score Difference after 6 Months of Administration (mean ± SD)” value in experiment [1] (30 mg TID oral after meals (tablets of Comparative Example 1)) and in experiment [1] (90 mg TID oral after meals (tablets of Example 1)) were -5.5 ± 7.2 and -8.0 ± 8.5, respectively. The “efficacy in patients with Alzheimer's disease” value in experiment [2] is reported as “proved effective”.

These data come from EP0629400B1 (TAKEDA CHEMICAL INDUSTRIES, LTD., priority 1993, dated 1994).
